Patent publication US20080248008A1, “Inhibitors of Protein Kinase a Anchoring” (priority 2004, published 2008)
Entries after “also recorded” stand apart in the source; their conditions may differ.

How the values were obtained:
[1] = target: T1, PKA-type II in lipid rafts of human peripheral blood T cells (Homo sapiens, UniProt P13861); experiment: PKA type II content of lipid rafts from human T cells; assay type: cell-based; conditions: n=4
T1 construct: endogenous in cells; host or cells: human peripheral blood CD3+ T cells
Method: Lipid Raft Purification. Isolation of lipid rafts or glycolipid-enriched membrane microdomains was performed as described in detail elsewhere (Zhang, W. et al., 1998, Immunity 9:239-246). In brief, cells were homogenized in 1 ml ice-cold lysis buffer (50 mM Hepes, pH 7.4, 100 mM NaCl, 5 mM EDTA, […], 10 mM sodium pyrophosphate, 1 mM Na3VO4, 50 mM NaF, 1 mM PMSF, and protease inhibitors) by 10 pestle strokes in a Dounce homogenizer, loaded at the bottom of a 40-5% sucrose gradient and centrifuged at 200,000 g for 5 or 20 h. 80 μl or 0.4-ml fractions were collected from the top. The fractions were analysed by immunoblot analysis. LAT was used as a marker for lipid raft fractions.
Lipid rafts were purified from isolated human peripheral blood T cells treated with MEME3-Arg11 or SM3-Arg11 for 12 hours, followed by 10% PAGE and blotting onto a PVDF membrane and immunoblotting (FIG. 18, left panel). The PKA content was measured by densitometry of immunoblots (n=4). PKA type I in cells treated with 10 μM or 25 μM M3-Arg11 was reduced by 80% and 90%, respectively. The very weak signal observed after immunoblotting using antibodies against RIIα (data not shown) was measured by densitometry of the autoradiogram. The PKA-type II level was not reduced in lipid rafts from human peripheral blood T cells treated with MEME3-Arg11 (FIG. 18, right panel, n=4).

mice with MAIDS = experiment: T cell proliferative response after in vivo treatment of mice with murine AIDS; conditions: 75 mg/kg/day intraperitoneal, 10 days
Method: Rad-LS infected mice with MAIDS (10-12 weeks postinfection) were treated with MEME3-Arg11 in doses corresponding to those used for other bioactive peptides in studies in mice. Parenteral administration was accomplished by injecting intraperitoneally peptide formulated in PBS. Thus, MAIDS mice were injected with vehicle (phosphate buffered saline, PBS, Ctr.) or treated with MEME3-Arg11 in PBS (M3) by intraperitoneal injection (75 mg/kg/day administered once daily) for 10 days (left panel). In parallel, healthy, uninfected mice were injected with PBS (Ctr.) or MEME3-Arg11 in PBS (M3) (right panel). Subsequently, T cell proliferative responses were assessed in vitro in a mixed population of unsorted lymph node mononuclear cells from treated and untreated animals by [^3H]-thymidine incorporation. T cell activation was accomplished in all samples by cross-ligation of anti-CD3 (mAb 2C11; 4 µg/ml). Cells were cultured for 72 h during which MEME3-Arg11 was added back. [^3H]-thymidine was included for the last 4 hours.

Y1 adrenal cells = experiment: Progesterone production in Y1 adrenal cells; assay type: cell-based, mouse; conditions: Actinomycin D treated cells
Method: Mouse adrenocortical Y1 cells were obtained from ATCC (Cat. No. CCL-79) and maintained in DMEM/HAM'S F-12 (Cat. No. E15-813, PAA Laboratories GmbH, Pasching, Austria) supplemented with 100 μg/ml streptomycin, 100 U/ml penicillin and 10% (v/v) fetal calf serum in a humidified atmosphere of 5% CO2 and split by trypsination at less than 80% confluence.
Progesterone production and StAR protein level. Y1 cells were cultured overnight in 6-well plates at the density of 1.5×10^6 cells per well. To increase the basal level of StAR, the cells were pre-stimulated with 10 μM forskolin for 1 hour, washed twice with medium, before peptide loading. Thereafter, the cells were loaded with 50 μM of the arginine-coupled peptide for 5 hours before being treated with 5 μg/ml Actinomyocin D (Cat. No. A-9415, Sigma) for 30 min and stimulated with 10 μM forskolin (Cat. No. 344270, Calbiochem) or 10 IU/ml ACTH (Cat. No. A-6303, Sigma) for 12 hours. […] Progesterone in the cell medium was measured by using either Spectria Progesterone RIA (Cat. No. 68521, Orion Diagnostica, Espoo, Finland) or DELFIA progesterone kit (Cat. No. A066-101, PerkinElmer) following the conditions recommended by the manufacture. The cells were lysed and the StAR protein was analysed by western blotting and the level measured by densiometric analysis.

PKA-RIIα = target: T2, PKA-RIIα (Mus musculus, UniProt P12367); experiment: Solid phase immobilization from Y-1 adrenal cell lysate, PKA-RIIα; assay type: binding; conditions: overnight
T2 construct: host or cells: mouse Y-1 adrenocortical cells (lysate)
Method: (§1) Solid phase assay and cell lysate. 5×10^6 Y1 cells or 20×10^6 Jurkat T cells lysed in 150 mM NaCl, 1% NP-40, 0.5% deoxycholate, 0.1% SDS and 50 mM Tris HCl (7.8) were incubated overnight at 4° C. with MEME3 and SM3 peptides synthesized on membranes (Autospot, Intavis, AG). The membranes were washed two times for 10 minutes in lysis buffer and thereafter in high salt lysis buffer (1 M NaCl) before boiling in SDS-PAGE loading buffer.
A solid phase immobilization assay (schematic illustration in FIG. 24, left panel) was used to analyse endogenous PKA binding to MEME3. MEME3 and SM3 peptides synthesized in triplicate on membranes were incubated overnight in lysate from Y-1 adrenal cells. Thereafter bound proteins were eluted, subjected to 10% PAGE and analysed by immunoblotting using specific antibodies against PKA-RIα, PKA-C and PKA-RIIα subunits.

PKA-RIα = PKA-RIα (Homo sapiens, UniProt P10644); experiment: Solid phase pull down from T cell lysate, PKA-RIα; assay type: binding; parameters: endogenous in cells; host or cells: Jurkat T cells; conditions: overnight
Method: as §1
Solid phase pull down (see schematic illustration in FIG. 24A, left panel) was performed to analyse endogenous PKA binding to MEME3. MEME3 and SM3 peptides synthesized in triplicate on membranes were incubated overnight in T cell lysate, thereafter bound proteins were eluted, subjected to 10% PAGE electrophoresis and analysed by immunoblotting (FIG. 11). The presence of PKA subunits was assessed by immunoblotting using specific antibodies against PKA-RIα and PKA-RIIα subunits.

T2 sequence (P12367 whole entry): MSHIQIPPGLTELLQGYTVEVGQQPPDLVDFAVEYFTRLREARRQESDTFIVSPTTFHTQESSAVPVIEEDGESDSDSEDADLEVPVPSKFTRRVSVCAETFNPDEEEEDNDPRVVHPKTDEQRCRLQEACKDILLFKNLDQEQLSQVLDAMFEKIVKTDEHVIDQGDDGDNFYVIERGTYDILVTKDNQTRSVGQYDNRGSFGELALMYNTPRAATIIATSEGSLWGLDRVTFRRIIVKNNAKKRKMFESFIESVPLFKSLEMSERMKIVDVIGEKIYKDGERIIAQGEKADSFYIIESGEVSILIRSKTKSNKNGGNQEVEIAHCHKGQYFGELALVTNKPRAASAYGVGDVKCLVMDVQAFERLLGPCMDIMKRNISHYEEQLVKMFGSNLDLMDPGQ
T1 sequence (P13861 whole entry): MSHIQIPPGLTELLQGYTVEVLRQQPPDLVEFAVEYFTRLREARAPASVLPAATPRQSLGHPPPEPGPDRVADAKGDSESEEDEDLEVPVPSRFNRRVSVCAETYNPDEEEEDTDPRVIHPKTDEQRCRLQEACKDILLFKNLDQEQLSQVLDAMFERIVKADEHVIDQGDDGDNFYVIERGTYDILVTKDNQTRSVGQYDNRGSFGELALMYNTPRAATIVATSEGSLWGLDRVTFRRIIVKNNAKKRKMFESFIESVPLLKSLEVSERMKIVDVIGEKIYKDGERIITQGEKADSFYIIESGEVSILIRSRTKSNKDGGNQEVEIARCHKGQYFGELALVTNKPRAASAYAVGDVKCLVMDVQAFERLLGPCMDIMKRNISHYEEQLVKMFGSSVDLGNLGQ

“LEQYANQLADQIIKEATERRRRRRRRRrr [MEME3-Arg11]” was tested, and the “PKA-type II level in lipid rafts” value [1] was “not reduced”, the “T cell responses to anti-CD3 ([3H]-thymidine) compared to infected, control-treated mice” value (mice with MAIDS) was “significant increase (p=0.013); also recorded: increased more than three-fold” and the “inhibition relative to that with mutated PKA phosphorylation site in StAR” value (Y1 adrenal cells) was “approximately 80%”. For the same substance, the “reduction of progesterone production compared to SM3-Arg11” value (Y1 adrenal cells; forskolin) was 60%.
In the case of “IEKELAQQYQNADAITLE [SM3, scrambled MEME3 negative control peptide, reference compound]”, the “immobilization of PKA-RIIα” value (PKA-RIIα) is reported as “Neither PKA-RIα, PKA-C nor PKA-RIIα were immobilized” and the “immobilization of PKA-RIα” value (PKA-RIα) is reported as “Neither PKA-RIα nor PKA-RIIα bound”.
